Data: patent US10590454B2, “Methods of preventing and removing trisulfide bonds” (Biogen MA Inc., priority 2011, dated 2020)

How the values were obtained:
[1] = test system: cysteine degradation (release of hydrogen sulfide); experiment: Release of hydrogen sulfide from cysteine-containing medium with inhibitors of cysteine degradation; conditions: cell-culture medium, inhibitor 17.7 mM (1:1 to cysteine), 24 hours
Protocol: In order to test the effect of cysteine degradation inhibitors on release of hydrogen sulfide in cell-culture medium, various inhibitors were added to the medium at the concentration of 17.7 mM, which represents a 1:1 ratio to the concentration of cysteine in the medium. Released hydrogen sulfide concentration was measured after 24 hours of incubation. Briefly, 50 ml of medium was incubated overnight in a closed 100 ml bottle. The headspace was therefore equal to the liquid volume of the container. A Jerome 631-X hydrogen sulfide detector was connected to a short piece of silicon tubing to minimize holdup volume in the instrument. The end of the tubing was inserted into the headspace of the medium-containing bottle, and the Jerome 631-X detector sampled the headspace immediately after opening the bottle.
The effect of pyruvate on release of hydrogen sulfide from cysteine degradation was further tested. The experiments were performed as described above in Example 9. Concentration of released hydrogen sulfide was measured after incubation from solutions containing 17.7 mM cysteine, plus 200 g/L glucose or subgroups of amino acids, in the absence or presence of pyruvate.
The effect of pyruvate on release of hydrogen sulfide from cysteine degradation was also tested in various cell-culture media, including feed liquid, IMDM and DMEM. All cysteine concentrations were normalized to that in the feed liquid. 17.7 mM pyruvate was added to the medium, which represents a 1:1 ratio of cysteine to pyruvate in the medium. The experiments were performed as described above for Example 9. […] Thus, pyruvate can reduce cysteine degradation and H2S release in a variety of compositions and decrease the number of trisulfide bonds.

[2] = Differential scanning calorimetry; type: physicochemical; conditions: preparations with low or high H-L trisulfide or treated with 1 mM cysteine; 25° C. to 100° C.
Protocol: The DSC was performed using a MicroCal capillary VP-DSC system (Northampton, Mass., USA) with Origin VPViewer2000 v2.0.64 software. Sample concentration was 0.5 mg/mL in 50 mM sodium phosphate, 100 mM NaCl, pH 6.0. Thermograms were generated by scanning temperature from 25° C. to 100° C. at a rate of 2° C./min.

[3] = Stability of trisulfides in vivo in rats after intraperitoneal injection; conditions: rat, 100 mg/kg intraperitoneally, based on column recoveries
Protocol: The samples were incubated with 100 μL of the resin for 2 h at room temperature with mild agitation. The resin was then washed six times with 0.5 mL of PBS and six times with 0.5 mL of 25 mM sodium phosphate, 100 mM NaCl, pH 5.5, after which the bound antibody was eluted with 25 mM sodium phosphate, pH 2.8, 100-mM NaCl. […] Portions of the serum (750 μL for the 24-h point, and 1050 μL for the 72-h point) were subjected to IgSelect purification using 150 μL of IgSelect (protocol described above).

[4] = Heat induced fragmentation, non-reducing capillary electrophoresis (CE-SDS); type: physicochemical; conditions: 70° C. for 3 minutes with iodoacetamide; compared to mAb-A-LT
Protocol: In these experiments, analysis of IgG1 mAb was performed by denaturing, non-reducing capillary electrophoresis in the presence of sodium dodecyl sulfate using an IgG Purity/Heterogeneity Assay Kit (# A10663) and ProteomeLab PA-800 instrument (Beckman Coulter). Samples (200 μg) were prepared by heating to 70° C. for 3 minutes in the presence of iodoacetamide, 1 mM SDS and a 10 kDa standard essentially as per manufacturer's instructions (Protocol A10424-AC) and separated for 35 min in a bare fused silica capillary with detection at 220 nm. The results, shown in FIGS. 1A and 1B show an increased level of fragmentation following sample preparation for non-reducing electrophoresis. The electrophoretic migration pattern of the single most abundant fragment was consistent with the loss of one light chain (L) from the intact mAb with the simultaneous generation of a species consisting of two heavy chains and one light chain (HHL fragment). This phenomenon was then used to rapidly screen for conditions that influence trisulfide content in IgG1 mAbs. In this screen, non-reducing electrophoresis was used as a rapid assay for detection of trisulfide bonds.

Compound	Release of hydrogen sulfide [1]	further results
CCOC(=O)C(C)=O [ethyl pyruvate]	functionally stopped release of hydrogen sulfide	
O=CC(O)CO (racemic) [DL-glyceraldehyde]	functionally stopped release of hydrogen sulfide	
mAb1: anti-LINGO-1 antibody Li81, human IgG1 produced in CHO cells		Transition temperature profiles [2]: no differences in transition temperature profiles detected; Level of mAb1 in the serum ([3]; after 24 h): 850 µg/mL; Level of mAb1 in the serum ([3]; after 72 h): 700 µg/mL; Sensitivity to heat treatment (fragmentation to HHL species) [4]: increased sensitivity to extreme heat treatment
COC(=O)C(C)=O [methyl pyruvate]	functionally stopped release of hydrogen sulfide	
O=CC(=O)O [glyoxylic acid]	functionally stopped release of hydrogen sulfide	
